pIC50: −log10 of the molar value. A value given as a limit tells only on which side of the number the result lay.

One experiment concerns the target T1, Recombinant human TRKC (Homo sapiens, UniProt Q16288).
T1 construct: purchased Carna Biosciences
Kind of experiment: In vitro activity test on TRKC kinase (HTRF KinEASE TK). Type of experiment: biochemical. As to conditions: 25.64 μM ATP, 40 min. Put shortly:
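Recombinant human TRKC (0.037 ng/μL) with 1 μM biotinylated TK substrate, 25.64 μM ATP, 5 mM MgCl2, 1 mM DTT, 40 min at room temperature; compound 1 μM to 0.05 nM, 1% DMSO. HTRF 665/620 ratio after overnight detection; IC50 from 4-parameter fit.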
A general note: In TR-FRET formats the signal depends on donor and acceptor labels being close together.

The target in another experiment is T2, Recombinant human TRKB (Homo sapiens, UniProt Q16620).
T2 construct: purchased Carna Biosciences
T2 sequence (Q16620 32-822): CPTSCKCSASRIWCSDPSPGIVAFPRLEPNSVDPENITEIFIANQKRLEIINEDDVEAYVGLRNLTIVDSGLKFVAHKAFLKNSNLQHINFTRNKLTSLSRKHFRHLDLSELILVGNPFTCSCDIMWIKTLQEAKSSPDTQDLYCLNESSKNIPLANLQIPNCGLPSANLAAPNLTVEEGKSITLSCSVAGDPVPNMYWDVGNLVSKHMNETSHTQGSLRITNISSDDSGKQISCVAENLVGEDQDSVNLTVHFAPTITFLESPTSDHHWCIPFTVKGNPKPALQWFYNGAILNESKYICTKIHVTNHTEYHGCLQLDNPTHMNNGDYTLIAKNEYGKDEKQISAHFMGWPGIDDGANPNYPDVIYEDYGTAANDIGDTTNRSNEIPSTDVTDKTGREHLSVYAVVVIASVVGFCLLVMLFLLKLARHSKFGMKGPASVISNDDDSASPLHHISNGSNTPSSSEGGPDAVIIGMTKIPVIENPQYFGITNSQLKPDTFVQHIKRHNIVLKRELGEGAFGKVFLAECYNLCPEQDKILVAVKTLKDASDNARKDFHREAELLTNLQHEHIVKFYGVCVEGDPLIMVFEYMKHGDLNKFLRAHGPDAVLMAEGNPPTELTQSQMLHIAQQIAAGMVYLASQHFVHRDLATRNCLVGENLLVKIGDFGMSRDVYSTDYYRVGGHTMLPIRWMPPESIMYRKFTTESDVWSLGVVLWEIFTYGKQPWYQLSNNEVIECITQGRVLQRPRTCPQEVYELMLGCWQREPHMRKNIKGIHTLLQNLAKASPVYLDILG
Kind of experiment: In vitro activity test on TRKB kinase (HTRF KinEASE TK). Type of experiment: biochemical. The note with it: 4.77 μM ATP, 50 min. The procedure, abridged:
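Recombinant human TRKB (0.037 ng/μL) phosphorylated 1 μM biotinylated TK substrate at 4.77 μM ATP, 5 mM MgCl2, 1% DMSO, 50 min at room temperature; compounds 1 μM–0.05 nM. HTRF KinEASE detection overnight; 665/620 ratio converted to inhibition and IC50 from 4-parameter fit.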

The test system of another experiment is KM12-LUC cells. Nature of the experiment: KM12-LUC cell proliferation experiment (CellTiter-Glo, 72 hours). It counts as cell-based. The note with it: Homo sapiens; KM12-LUC cells expressing TPM3-NTRK1 fusion gene. The text has this: Biological Test Example 3: KM12-LUC Cell Proliferation Experiment
Human colon cancer cell line KM12-LUC (LUC, stably expressing Luciferase) expressing TPM3-NTRK1 fusion gene was used to evaluate cellular activity of the compounds cellular level. The TRK fusion gene in KM12-LUC cells makes it independent on the stimulation of extracellular growth factor, sustainably self-activate and activate the downstream signal pathway associated with cell proliferation such as MAPK-ERK, PI3K-AKT, or the like. […] The method was as follows: On the first day, the cells were seeded into 384-well plates at 2,000 cells/well; on the second day, different concentrations of test compounds were added; and on the 5th day, CellTiter-Glo (Promega) was added to detect cellular potency, and 72 hours cell proliferation inhibition rate was calculated. Statistical analysis was carried out by Prism5 and the inhibition rate of the test compound were calculated, as shown in FIG. 1.
(In ATP-based viability assays light output follows the ATP content of the culture.)

A further experiment concerns the target T3, Recombinant human TRKA (Homo sapiens, UniProt P04629).
T3 construct: purchased Carna Biosciences
Nature of the experiment: In vitro activity test on TRKA kinase (HTRF KinEASE TK). It counts as biochemical. The note with it: 14.68 μM ATP, 40 min. The procedure, abridged:
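Reaction: 0.2 ng/μL TRKA, 1 μM biotinylated TK substrate, 14.68 μM ATP, 5 mM MgCl2, 1 mM DTT, 1% DMSO, 40 min at room temperature. Compounds tested at 1 μM to 0.05 nM (10-point, 3-fold, duplicate). HTRF 665/620 ratio converted to % inhibition versus no-compound control; IC50 by 4-parameter fit.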

The target in the next experiment is T4, ΔTRKA(G595R) (Homo sapiens, UniProt P04629, G595R, form not given).
T4 construct: NIH-3T3 cell line stably expressing ΔTRKA or ΔTRKA(G595R) was constructed by plasmid transfection
T4 sequence (P04629 440-796 G595R limits assumed, form open): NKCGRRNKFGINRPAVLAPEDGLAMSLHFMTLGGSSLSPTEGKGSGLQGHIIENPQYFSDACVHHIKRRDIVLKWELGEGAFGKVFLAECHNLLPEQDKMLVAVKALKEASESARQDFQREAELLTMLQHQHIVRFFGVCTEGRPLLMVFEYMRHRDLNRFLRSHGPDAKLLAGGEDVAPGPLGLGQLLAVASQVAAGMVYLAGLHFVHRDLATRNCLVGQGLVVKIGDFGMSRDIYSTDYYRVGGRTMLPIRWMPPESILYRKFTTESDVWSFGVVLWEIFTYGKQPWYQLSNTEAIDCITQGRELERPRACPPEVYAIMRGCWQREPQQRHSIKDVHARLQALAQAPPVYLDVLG
Kind of experiment: Detection of TRK kinase activity on cellular level by ELISA, ΔTRKA(G595R)/NIH-3T3 cells. It counts as cell-based. As to conditions: NIH-3T3 cells stably expressing ΔTRKA(G595R), 2 hours treatment. The procedure: Biological Test Example 4: Detection of TRK Kinase Activity on Cellular Level by ELISA
NIH-3T3 cell line stably expressing ΔTRKA or ΔTRKA(G595R) was constructed by plasmid transfection.
On the first day, cells were seeded into a 96-well cell culture plate, 10000 cells/well in the medium (DMEM+10% FBS). On the second day, different concentrations of test compounds were added to treat cells for 2 hours, then the cell culture plate was placed on ice; and the supernatant was removed and washed with pre-cooled PBS once. The cells were lysed with NP40 lysis buffer containing protease and phosphatase inhibitor, transferred to an antibody pre-coated plate, and sealed to incubate overnight at 4° C. The remaining steps were proceeded according to the method provided in the ELISA kit (eg, as described in R&D DYC2578-2), results were shown in Table 2.
Background: An ELISA detects its analyte on a solid surface through an enzyme-linked reagent.

Experiment [1] has as its target T5, recombinant human TRKA (G667C) (Homo sapiens, UniProt P04629, G667C).
T5 construct: purchased SignalChem
Nature of the experiment: In vitro activity test on mutant TRKA (G667C) (HTRF KinEASE TK). Type of experiment: biochemical. The note with it: 5.5 μM ATP, 30 min. The procedure, abridged:
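HTRF KinEASE TK format with recombinant human TRKA G667C (0.026 ng/μL), 1 μM biotinylated TK substrate, 5.5 […] ATP, 5 mM MgCl2, 1 mM DTT, 1% DMSO; 30 min at room temperature. Detection overnight; 665/620 ratio gives % inhibition, IC50 from 4-parameter fit over 10 doses (1 μM–0.004 nM).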

In experiment [2] the target is T6, recombinant human TRKA (G595R) (Homo sapiens, UniProt P04629, G595R).
T6 construct: purchased SignalChem
T6 sequence (P04629 33-796 G595R): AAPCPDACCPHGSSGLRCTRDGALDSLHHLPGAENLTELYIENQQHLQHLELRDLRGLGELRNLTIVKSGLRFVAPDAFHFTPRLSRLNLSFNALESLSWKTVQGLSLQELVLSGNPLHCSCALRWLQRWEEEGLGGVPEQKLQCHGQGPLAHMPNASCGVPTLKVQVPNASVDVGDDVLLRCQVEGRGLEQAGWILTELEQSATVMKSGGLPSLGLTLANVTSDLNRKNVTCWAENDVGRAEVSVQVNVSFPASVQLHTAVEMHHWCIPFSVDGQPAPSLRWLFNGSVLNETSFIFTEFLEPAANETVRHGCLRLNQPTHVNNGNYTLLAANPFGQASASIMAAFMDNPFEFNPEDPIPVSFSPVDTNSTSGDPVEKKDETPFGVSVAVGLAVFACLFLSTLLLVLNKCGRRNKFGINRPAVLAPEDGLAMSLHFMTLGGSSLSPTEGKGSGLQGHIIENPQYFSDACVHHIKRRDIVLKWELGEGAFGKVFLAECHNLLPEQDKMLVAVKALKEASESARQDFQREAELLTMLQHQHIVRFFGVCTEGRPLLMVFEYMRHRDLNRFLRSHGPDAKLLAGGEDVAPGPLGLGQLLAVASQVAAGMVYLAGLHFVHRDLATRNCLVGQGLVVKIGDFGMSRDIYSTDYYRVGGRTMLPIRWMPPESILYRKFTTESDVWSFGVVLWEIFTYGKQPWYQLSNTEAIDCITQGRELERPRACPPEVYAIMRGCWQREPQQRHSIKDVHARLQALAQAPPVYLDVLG
Kind of experiment: In vitro activity test on mutant TRKA (G595R) (HTRF KinEASE TK). Type of experiment: biochemical. The note with it: 4.5 μM ATP, 30 min. Put shortly:
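HTRF KinEASE TK format: 0.12 ng/μL recombinant TRKA (G595R), 1 μM biotinylated TK substrate, 4.5 μM ATP, 5 mM MgCl2, 1 mM DTT, 1% DMSO, 30 min at room temperature; detection overnight. IC50 from 10-point 4-fold series (1 μM to 0.004 nM, duplicates), 665/620 ratio, 4-parameter fit.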

T5 sequence (P04629 33-796 G667C): as the sequence (P04629 33-796 G595R) above, with R563G, G635C counted along it
T3 sequence (P04629 33-796): as the sequence (P04629 33-796 G595R) above, with R563G counted along it
T1 sequence (Q16288 32-839): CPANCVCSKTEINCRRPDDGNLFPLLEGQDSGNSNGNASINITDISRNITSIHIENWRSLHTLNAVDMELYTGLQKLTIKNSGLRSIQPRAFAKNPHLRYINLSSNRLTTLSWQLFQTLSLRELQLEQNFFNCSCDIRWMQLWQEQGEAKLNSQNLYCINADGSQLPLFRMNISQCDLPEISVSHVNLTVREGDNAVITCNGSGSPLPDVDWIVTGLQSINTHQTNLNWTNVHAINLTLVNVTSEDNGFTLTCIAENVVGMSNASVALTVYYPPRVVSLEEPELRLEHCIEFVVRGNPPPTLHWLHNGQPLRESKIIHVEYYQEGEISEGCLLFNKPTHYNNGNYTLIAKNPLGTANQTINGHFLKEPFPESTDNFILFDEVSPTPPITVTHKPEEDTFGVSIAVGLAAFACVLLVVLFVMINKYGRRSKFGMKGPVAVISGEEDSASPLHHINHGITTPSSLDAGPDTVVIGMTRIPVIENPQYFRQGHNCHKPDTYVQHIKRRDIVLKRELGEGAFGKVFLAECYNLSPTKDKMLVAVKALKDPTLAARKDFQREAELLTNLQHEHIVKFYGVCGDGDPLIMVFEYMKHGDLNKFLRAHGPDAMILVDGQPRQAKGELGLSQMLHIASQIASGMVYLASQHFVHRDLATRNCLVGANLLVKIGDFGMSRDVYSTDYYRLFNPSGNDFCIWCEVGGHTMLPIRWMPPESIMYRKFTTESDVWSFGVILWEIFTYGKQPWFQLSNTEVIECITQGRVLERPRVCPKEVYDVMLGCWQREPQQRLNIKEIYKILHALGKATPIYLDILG

For `O=C1CNCCN1c1ccc(-c2c(F)cnc3ccc(N4C[C@@H](F)C[C@@H]4c4cc(F)ccc4F)nc23)cn1` [Example 97, 1-(5-(6-((2R,4S)-2-(2,5-difluorophenyl)-4-fluoropyrrolidin-1-yl)-3-fluoro-1,5-naphthyridin-4-yl)pyridin-2-yl)piperazin-2-one], the pIC50 (commonly the negative decadic logarithm of the IC50, by convention in mol/L) is above 9.00 at Recombinant human TRKC, above 8.00 on Recombinant human TRKB, above 8.00 with KM12-LUC cells and above 9.00 on Recombinant human TRKA.
Turning to `Fc1ccc(F)c([C@H]2CCCN2c2ccc3nccc(-c4cnn(C5CCNCC5)c4)c3n2)c1` [Example 7, (R)-2-(2-(2,5-Difluorophenyl)pyrrolidin-1-yl)-8-(1-(piperidin-4-yl)-1H-pyrazol-4-yl)-1,5-naphthyridine], the pIC50 on Recombinant human TRKC was above 7.30; on Recombinant human TRKB it was above 7.00; with KM12-LUC cells, above 8.00; against ΔTRKA(G595R), above 8.00; in experiment [1] it was above 9.00; in experiment [2] it was above 9.00. Also, the pIC50 at Recombinant human TRKA was above 7.30.
With `O[C@@H]1CCN(c2ccc(-c3c(Cl)cnc4ccc(N5C[C@@H](F)C[C@@H]5c5cc(F)ccc5F)nc34)cn2)C1` [Example 65, (R)-1-(5-(3-chloro-6-((2R,4S)-2-(2,5-difluorophenyl)-4-fluoropyrrolidin-1-yl)-1,5-naphthyridin-4-yl)pyridin-2-yl)pyrrolidin-3-ol], the pIC50 (at Recombinant human TRKC; at Recombinant human TRKB; with KM12-LUC cells; on ΔTRKA(G595R); in experiment [1]; in experiment [2]) was above 8.00 in each case. The pIC50 on Recombinant human TRKA is above 9.00.
`[2H]c1nc(-c2cnn(C3CCNCC3)c2)c2nc(N3C[C@@H](F)C[C@@H]3c3cc(F)ccc3F)ccc2n1` [Example 58]: the pIC50 on Recombinant human TRKC was above 9.00; at Recombinant human TRKB it was above 8.00; in the experiment on KM12-LUC cells, above 8.00; against ΔTRKA(G595R), above 8.00; in experiment [1] it was above 9.00; in experiment [2], above 9.00. Moreover, the pIC50 on Recombinant human TRKA is above 9.00.
`Fc1ccc(F)c([C@H]2C[C@H](F)CN2c2ccc3ncc(Cl)c(-c4ccc(C5CCNCC5)nc4)c3n2)c1` [Example 63, 7-chloro-2-((2R,4S)-2-(2,5-difluorophenyl)-4-fluoropyrrolidin-1-yl)-8-(6-(piperidin-4-yl)pyridin-3-yl)-1,5-naphthyridine]: the pIC50 on Recombinant human TRKC was above 8.00; at Recombinant human TRKB it was above 8.00; with KM12-LUC cells, above 8.00; against ΔTRKA(G595R), above 8.00; in experiment [2], above 8.00; at Recombinant human TRKA it was above 9.00.

Values taken from patent publication US20220017512A1 (SHANGHAI ENNOVABIO PHARMACEUTICALS CO., LTD., priority 2018, published 2022).
